Literature values, collected in US20140314729A1, “NUTRACEUTICAL FORMULATION FOR TREATMENT OF ELEVATED CHOLESTEROL AND CARDIOVASCULAR DISEASE” (Creative Medical Health Inc., priority 2013, published 2014).

Assays:
[1] = tested on: volunteers; details: 1.6 mg daily, 42-day period
[2] = tested on: HIV-positive subjects; details: 1000 µg/day for eight weeks
[3] = tested on: streptozotocin-treated rats; details: 80 μg/kg body weight daily for two weeks; P<0.001
[4] = tested on: mouse model; details: 150 mg/kg body weight for 10 days
[5] = tested on: patients with type 2 diabetes; details: oral 200 mg/day for 12 weeks

chromium picolinate
decrease in LDL cholesterol [1]: 10.5%
decrease in total cholesterol [1]: 7%
LDL cholesterol after treatment ([1]; from 200): 178 mg per dl
total cholesterol after treatment ([1]; from 276): 256 mg per dl
increase of mean rate of glucose disposal [2]: 25%
mean rate of glucose disposal after treatment ([2]; from 4.41, range 3.19-12.78, p=0.03): 6.51 mg/kg LBM/min
average lowering of blood glucose compared with high-fat diet alone [3]: 63%
lowering of total cholesterol compared with high-fat diet alone [3]: 9.7%
lowering of triglycerides compared with high-fat diet alone [3]: 6.6%

CC(C)(COP(=O)(O)O)[C@@H](O)C(=O)NCCC(=O)O [phosphopantothenate]
content of triglycerides, total cholesterol and cholesterol esters in serum and adipose tissue [4]: decreased

COC1=C(OC)C(=O)C(C/C=C(\C)CC/C=C(\C)CC/C=C(\C)CC/C=C(\C)CC/C=C(\C)CC/C=C(\C)CC/C=C(\C)CC/C=C(\C)CC/C=C(\C)CCC=C(C)C)=C(C)C1=O [coenzyme Q10]
brachial artery flow-mediated dilation [5]: increased
